Results published in patent US20260256792A1, “TREATMENT OF CHRONIC SPONTANEOUS URTICARIA BY ADMINISTERING (R)-2-[3-[4-AMINO-3-(2-FLUORO-4-PHENOXY-PHENYL)PYRAZOLO[3,4-D]PYRIMIDIN-1-YL]PIPERIDINE-1-CARBONYL]-4-METHYL-4-[4-(OXETAN-3-YL)PIPERAZIN-1-YL]PENT-2-ENENITRILE” (priority 2023, published 2026).

Tested on: moderate-to-severe chronic spontaneous urticaria (CSU)
Assay: Phase 2 CSU study: Patient Global Impression of Severity (PGIS)
Assay type: in vivo, human
Settings: for PGIS Change from baseline Mean (SD) / PGIS Change from baseline Median / PGIS Median / PGIS Percent change from baseline Mean (SD) / PGIS Percent change from baseline Median / PGIS category Mild, patients / PGIS category Moderate, patients / PGIS category None, patients / PGIS category Severe, patients: omalizumab-naïve population; for PGIS % Change difference for rilzabrutinib vs. placebo LS Mean (95% CI) / PGIS % Change from baseline LS Mean (SE) / PGIS Change difference for rilzabrutinib vs. placebo LS Mean (95% CI) / PGIS Change from baseline LS Mean (SE): omalizumab-naïve, ANCOVA
Source text: The study comprises a 12 week, randomized, double-blind, placebo-controlled, multi-center, dose-ranging efficacy and safety phase, followed by a 40 week open label extension (OLE) phase (see FIG. 1).
The study consists of three phases and an optional OLE phase.
The PGIS is a 1-item measure that asks participants to provide a self-assessment of their overall CSU severity for the past week on a 4 point scale. Response choices are: “None”, “Mild”, “Moderate” and “Severe”. The PGIC is a 1-item measure that asks the participant to provide a self-assessment of overall change in their CSU since the participant started taking the study medication on a 7-point scale. The response options range from “Very Much Better” to “Very Much Worse.” Patients were to complete questionnaires for the 2 items during their site visit.

## CC(C)(C=C(C#N)C(=O)N1CCC[C@@H](n2nc(-c3ccc(Oc4ccccc4)cc3F)c3c(N)ncnc32)C1)N1CCN(C2COC2)CC1 [rilzabrutinib, (R)-2-[3-[4-amino-3-(2-fluoro-4-phenoxy-phenyl)pyrazolo[3,4-d]pyrimidin-1-yl]piperidine-1-carbonyl]-4-methyl-4-[4-(oxetan-3-yl)piperazin-1-yl]pent-2-enenitrile]
400 mg TID
  quality of life as measured by PGIS: improvement
Week 2, 400 mg BID
  PGIS Change from baseline Mean (SD): −0.65
  PGIS Change from baseline Median: 0.00
  PGIS Median: 2.00
  PGIS Percent change from baseline Mean (SD): −23.12%
  PGIS Percent change from baseline Median: 0.00%
  PGIS category Mild, patients: 8 (25.8)
  PGIS category Moderate, patients: 14 (45.2)
  PGIS category None, patients: 5 (16.1)
  PGIS category Severe, patients: 4 (12.9)
  PGIS % Change difference for rilzabrutinib vs. placebo LS Mean (95% CI): −7.56 (−24.17, 9.05) %
  PGIS % Change from baseline LS Mean (SE): −26.23 (6.28) %
  PGIS Change difference for rilzabrutinib vs. placebo LS Mean (95% CI): −0.26 (−0.63, 0.11)
  PGIS Change from baseline LS Mean (SE): −0.76 (0.14)
Week 2, 400 mg QPM
  PGIS Change from baseline Mean (SD): −0.48
  PGIS Change from baseline Median: 0.00
  PGIS Median: 2.00
  PGIS Percent change from baseline Mean (SD): −17.68%
  PGIS Percent change from baseline Median: 0.00%
  PGIS category Mild, patients: 8 (24.2)
  PGIS category Moderate, patients: 17 (51.5)
  PGIS category None, patients: 0
  PGIS category Severe, patients: 8 (24.2)
  PGIS % Change difference for rilzabrutinib vs. placebo LS Mean (95% CI): 0.86 (−15.86, 17.59) %
  PGIS % Change from baseline LS Mean (SE): −17.80 (6.05) %
  PGIS Change difference for rilzabrutinib vs. placebo LS Mean (95% CI): 0.03 (−0.34, 0.41)
  PGIS Change from baseline LS Mean (SE): −0.47 (0.14)
Week 2, 400 mg TID
  PGIS Change from baseline Mean (SD): −0.94
  PGIS Change from baseline Median: 1.00
  PGIS Median: 1.00
  PGIS Percent change from baseline Mean (SD): −41.92%
  PGIS Percent change from baseline Median: −50.00%
  PGIS category Mild, patients: 17 (50.0)
  PGIS category Moderate, patients: 9 (26.5)
  PGIS category None, patients: 4 (11.8)
  PGIS category Severe, patients: 4 (11.8)
  PGIS % Change difference for rilzabrutinib vs. placebo LS Mean (95% CI): −22.00 (−38.77, −5.22) %
  PGIS % Change from baseline LS Mean (SE): −40.66 (6.06) %
  PGIS Change difference for rilzabrutinib vs. placebo LS Mean (95% CI): −0.46 (−0.83, −0.09)
  PGIS Change from baseline LS Mean (SE): −0.96 (0.13)
Week 4, 400 mg BID
  PGIS Change from baseline Mean (SD): −0.70
  PGIS Change from baseline Median: 0.00
  PGIS Median: 2.00
  PGIS Percent change from baseline Mean (SD): −27.78%
  PGIS Percent change from baseline Median: 0.00%
  PGIS category Mild, patients: 10 (30.3)
  PGIS category Moderate, patients: 15 (45.5)
  PGIS category None, patients: 5 (15.2)
  PGIS category Severe, patients: 3 (9.1)
  PGIS % Change difference for rilzabrutinib vs. placebo LS Mean (95% CI): −1.31 (−17.26, 14.65) %
  PGIS % Change from baseline LS Mean (SE): −29.83 (5.99) %
  PGIS Change difference for rilzabrutinib vs. placebo LS Mean (95% CI): −0.12 (−0.48, 0.25)
  PGIS Change from baseline LS Mean (SE): −0.81 (0.13)
Week 4, 400 mg QPM
  PGIS Change from baseline Mean (SD): −0.65
  PGIS Change from baseline Median: −0.50
  PGIS Median: 2.00
  PGIS Percent change from baseline Mean (SD): −25.49%
  PGIS Percent change from baseline Median: −16.67%
  PGIS category Mild, patients: 10 (29.4)
  PGIS category Moderate, patients: 15 (44.1)
  PGIS category None, patients: 1 (2.9)
  PGIS category Severe, patients: 8 (23.5)
  PGIS % Change difference for rilzabrutinib vs. placebo LS Mean (95% CI): 3.06 (−12.83, 18.95) %
  PGIS % Change from baseline LS Mean (SE): −25.46 (5.77) %
  PGIS Change difference for rilzabrutinib vs. placebo LS Mean (95% CI): 0.09 (−0.27, 0.44)
  PGIS Change from baseline LS Mean (SE): −0.61 (0.13)
Week 4, 400 mg TID
  PGIS Change from baseline Mean (SD): −1.07
  PGIS Change from baseline Median: 1.00
  PGIS Median: 1.00
  PGIS Percent change from baseline Mean (SD): −43.10%
  PGIS Percent change from baseline Median: −50.00%
  PGIS category Mild, patients: 15 (51.7)
  PGIS category Moderate, patients: 9 (31.0)
  PGIS category None, patients: 3 (10.3)
  PGIS category Severe, patients: 2 (6.9)
  PGIS % Change from baseline LS Mean (SE): −41.04 (6.24) %
  PGIS Change difference for rilzabrutinib vs. placebo LS Mean (95% CI): −0.27 (−0.62, 0.09)
  PGIS Change from baseline LS Mean (SE): −0.96 (0.13)
